19 molecules from patent publication US20080293712A1, “Benzo[C][2,7]Naphtyridine Derivatives, Methods of Making Thereof and Methods of Use Thereof” (WYETH, priority 2007, published 2008) can be followed below.

Some results are limits rather than exact numbers.

What all share (format): biochemical
The target in assay [1] is S6K (Homo sapiens, UniProt P23443). As to the kind of experiment: S6K kinase inhibition, Z'-LYTE FRET assay. As to conditions: 100 μM ATP. The source says:
(§1) The ability of illustrative Benzo[c][2,7]naphthyridine Derivatives to inhibit PKA, Akt1, S6K in vitro can be determined using a Fluorescence Resonance Energy Transfer (FRET) assay, such as a Z′-LYTE™ Kinase Assay Platform, commercially available from Invitrogen (c.f. Rodems et al., ASSAY Drug Devel. Technol. 1:9-19 (2002) and Zhang et al., J. Biomol. Screen. 4:67-73 (1999)). Z′-Lyte™ assay is an in vitro FRET-based assay that utilizes differential sensitivity of phosphorylated and non-phosphorylated peptides to proteolytic cleavage. The peptide substrate (also available from Invitrogen for each of PKA, Akt1 and S6K) is labeled with two different fluorophores, a fluorescence donor at one end of the peptide and a fluorescence acceptor at the other end of the peptide. In the primary kinase reaction, the kinase phosphorylates the peptide substrate in the presence of ATP. In the secondary reaction, a site-specific protease recognizes and cleaves non-phosphorylated peptides, but not phosphorylated peptides. Cleavage disrupts FRET between the donor and acceptor fluorophores on the peptide, whereas uncleaved phosphorylated peptides maintain FRET. Based on a formula that uses the ratio of donor emission (at 460 nm) to acceptor emission (at […]) after excitation of the donor fluorophore at 400 nm, the extent of phosphorylation of the peptide substrates is calculated. IC50 values of illustrative Benzo[c][2,7]naphthyridine Derivatives, shown in Table 12, are calculated using LSW Data Analysis package add-in for Excel (Microsoft).

The target of assay [2] is T1, PDK-1 (Homo sapiens, UniProt O15530).
T1 sequence (O15530 1-556): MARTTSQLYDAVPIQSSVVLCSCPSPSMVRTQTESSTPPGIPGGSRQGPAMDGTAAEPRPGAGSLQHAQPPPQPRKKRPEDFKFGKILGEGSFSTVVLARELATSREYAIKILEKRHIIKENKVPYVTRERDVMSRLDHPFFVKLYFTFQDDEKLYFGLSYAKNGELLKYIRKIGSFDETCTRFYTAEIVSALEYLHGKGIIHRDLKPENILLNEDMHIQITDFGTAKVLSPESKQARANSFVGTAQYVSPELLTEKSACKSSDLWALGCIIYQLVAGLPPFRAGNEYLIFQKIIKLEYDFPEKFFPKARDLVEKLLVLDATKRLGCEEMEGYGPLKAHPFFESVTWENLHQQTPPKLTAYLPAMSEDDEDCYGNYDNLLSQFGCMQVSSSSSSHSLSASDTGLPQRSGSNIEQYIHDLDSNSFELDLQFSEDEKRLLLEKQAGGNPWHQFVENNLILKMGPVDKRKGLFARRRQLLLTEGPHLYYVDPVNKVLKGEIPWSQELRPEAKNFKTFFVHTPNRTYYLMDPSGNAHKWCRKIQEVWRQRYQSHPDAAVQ
In words: PDK-1 kinase inhibition ELISA assay (phosphorylation of His6-tagged SGK1 S422D by PDK-1). As to conditions: PDK-1 ELISA, Table 11; read-out: Average IC50. A general note: An ELISA detects its analyte on a solid surface through an enzyme-linked reagent.
Protocol: In an in vitro assay, His6-tagged SGK1 with S422D mutation (formerly Upstate Biotech, now Millipore) on Thr256 is allowed to be phosphorylated by PDK-1 in the presence of a Benzo[c][2,7]naphthyridine Derivative. After 20 minutes, the reaction is quenched via the addition of urea. The His6-tagged SGK1 is then bound to 96 well Ni-NTA HisSorb plates (Quiagen, Inc., Valencia, Calif.) and phosphorylated SGK1 is quantitatively detected using rabbit derived anti-phospho SGK antibody (Cell Signaling Technology, Danvers, Mass.) as the primary antibody and horseradish peroxidase (HRP)—coupled anti-rabbit antibody (formerly Zymed, now Invitrogen, Carlsbad, Calif.) as the secondary antibody. HRP is then detected using a chemiluminescent substrate (Pierce Chemical Co., Woburn, Mass.).

The target of assay [3] is PKA (Homo sapiens, UniProt P17612). As to the kind of experiment: PKA kinase inhibition, Z'-LYTE FRET assay.
From the text: Z′-Lyte™ assay is an in vitro FRET-based assay that utilizes differential sensitivity of phosphorylated and non-phosphorylated peptides to proteolytic cleavage. The peptide substrate (also available from Invitrogen for each of PKA, Akt1 and S6K) is labeled with two different fluorophores, a fluorescence donor at one end of the peptide and a fluorescence acceptor at the other end of the peptide. In the primary kinase reaction, the kinase phosphorylates the peptide substrate in the presence of ATP. In the secondary reaction, a site-specific protease recognizes and cleaves non-phosphorylated peptides, but not phosphorylated peptides. Cleavage disrupts FRET between the donor and acceptor fluorophores on the peptide, whereas uncleaved phosphorylated peptides maintain FRET. Based on a formula that uses the ratio of donor emission (at 460 nm) to acceptor emission (at 535 nM) after excitation of the donor fluorophore at 400 nm, the extent of phosphorylation of the peptide substrates is calculated.
Assay [4] addresses Akt1 (Homo sapiens, UniProt P31749). In words: Akt1 kinase inhibition, Z'-LYTE FRET assay. As to conditions: 100 μM ATP.
From the text: as §1

S6K, sequence (P23443 whole entry): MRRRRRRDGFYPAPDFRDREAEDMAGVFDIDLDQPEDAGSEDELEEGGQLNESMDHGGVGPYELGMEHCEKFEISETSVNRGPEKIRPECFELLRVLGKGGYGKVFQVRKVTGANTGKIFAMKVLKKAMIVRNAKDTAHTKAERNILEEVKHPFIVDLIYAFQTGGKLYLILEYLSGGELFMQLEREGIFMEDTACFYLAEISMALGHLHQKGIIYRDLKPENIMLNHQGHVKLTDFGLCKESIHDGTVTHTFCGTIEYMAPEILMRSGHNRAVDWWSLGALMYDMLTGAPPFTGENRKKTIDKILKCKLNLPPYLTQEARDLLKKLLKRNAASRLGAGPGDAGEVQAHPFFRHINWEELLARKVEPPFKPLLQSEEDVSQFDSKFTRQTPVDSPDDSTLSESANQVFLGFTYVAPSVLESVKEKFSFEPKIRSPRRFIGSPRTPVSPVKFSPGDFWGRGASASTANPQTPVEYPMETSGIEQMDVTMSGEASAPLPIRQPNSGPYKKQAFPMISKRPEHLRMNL
Akt1, sequence (P31749 whole entry, species assumed): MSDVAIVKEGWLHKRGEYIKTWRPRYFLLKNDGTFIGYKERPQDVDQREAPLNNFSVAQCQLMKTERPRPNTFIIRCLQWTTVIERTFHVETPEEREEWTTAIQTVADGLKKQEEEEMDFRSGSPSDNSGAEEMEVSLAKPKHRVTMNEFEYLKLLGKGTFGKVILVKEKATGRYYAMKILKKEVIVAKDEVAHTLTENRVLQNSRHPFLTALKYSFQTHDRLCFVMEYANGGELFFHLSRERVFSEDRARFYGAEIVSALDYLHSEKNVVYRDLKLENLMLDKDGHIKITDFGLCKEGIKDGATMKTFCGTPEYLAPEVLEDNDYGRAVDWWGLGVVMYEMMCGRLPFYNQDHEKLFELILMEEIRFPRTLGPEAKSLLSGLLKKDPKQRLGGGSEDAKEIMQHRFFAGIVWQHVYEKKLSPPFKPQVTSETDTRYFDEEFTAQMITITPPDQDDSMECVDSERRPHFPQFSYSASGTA

The term IC50 denotes the concentration needed to halve the response being measured. On to `Nc1nc(-c2cncc(OC[C@@H](N)Cc3ccccc3)c2)cc2c1cnc1cc(/C=C/CCN3CCCC3)ccc12` [Ia-4, 2-(5-{[(2S)-2-amino-3-phenylpropyl]oxy}pyridin-3-yl)-8-[(1E)-4-pyrrolidin-1-ylbut-1-en-1-yl]benzo[c]-2,7-naphthyridin-4-amine], for which the concentration for half-maximal inhibition (IC50) in assay [1] is 89 nM; in assay [2] it was 27 nM; in assay [3] (20 μM ATP), under 32 nM; in assay [3] (100 μM ATP), 70 nM.

Regarding `Nc1nc(-c2cncc(OC[C@@H](N)Cc3ccccc3)c2)cc2c1cnc1cc(C#CCCn3ccnc3)ccc12` [Ia-5, 2-(5-{[(2S)-2-Amino-3-phenylpropyl]oxy}pyridin-3-yl)-8-[4-(1H-imidazol-1-yl)but-1-yn-1-yl]benzo[c]-2,7-naphthyridin-4-amine], the IC50 was 520 nM in assay [1], 340 nM in assay [3] (20 μM ATP), 872 nM in assay [3] (100 μM ATP) and 500 nM in assay [4].

With `COc1cc2c(cc1OCCCCl)ncc1c(N)nc(-n3ccnc3)cc12` [Ia-17, 8-(3-Chloropropoxy)-2-(1H-imidazol-1-yl)-9-methoxybenzo[c][2,7]naphthyridin-4-amine], the half-inhibitory concentration (IC50) was over 2000 nM in assay [1]; 105 nM in assay [2]; over 10000 nM in assay [3] (20 μM ATP); over 2000 nM in assay [3] (100 μM ATP); 280 nM in assay [4].

On to `COc1cc2ncc3c(N)nc(-c4cncc(OC[C@@H](N)Cc5ccc(NC(=O)OCc6ccccc6)cc5)c4)cc3c2cc1OC` [Ib-23], for which the concentration for half-maximal inhibition (IC50) was over 2000 nM in assay [1], over 100 nM in assay [2] and over 2000 nM in assay [3] (100 μM ATP).

Consider `COc1cc2ncc3c(N)nc(-c4cncc(OC[C@@H](N)Cc5cccc(C(F)(F)F)c5)c4)cc3c2cc1OC` [Ib-24, 2-[5-({(2S)-2-amino-3-[3-(trifluoromethyl)phenyl]propyl}oxy)pyridin-3-yl]-8,9-dimethoxybenzo[c]-2,7-naphthyridin-4-amine], for which the half-maximal inhibitory concentration (IC50) is 169 to 194 nM in assay [1], 13 nM in assay [2] and 198 to 219 nM in assay [3] (100 μM ATP).

Consider `COc1cc2ncc3c(N)nc(-c4cncc(OC[C@@H](N)CN(C)Cc5ccccc5)c4)cc3c2cc1OC` [Ib-27, (2S)-3-{[5-(4-amino-8,9-dimethoxybenzo[c]-2,7-naphthyridin-2-yl)pyridin-3-yl]oxy}-N1-benzyl-N1-methylpropane-1,2-diamine], for which the 50% inhibitory concentration (IC50) in assay [1] is 37 to 43 nM; in assay [2], 6 nM; in assay [3] (100 μM ATP), 110 to 217 nM.

For `COc1cc2ncc3c(N)nc(-c4cncc(C#CCN(C)Cc5ccccc5)c4)cc3c2cc1OC` [Ib-32, 2-(5-{3-[Benzyl(methyl)amino]prop-1-yn-1-yl}pyridin-3-yl)-8,9-dimethoxybenzo[c]-2,7-naphthyridin-4-amine], the IC50 in assay [1] was over 2000 nM; in assay [2], 850 nM; in assay [3] (100 μM ATP), over 2000 nM.

Consider `COc1cc2ncc3c(N)nc(-c4cncc(O[C@@H]5CCCNC5)c4)cc3c2cc1OC` [Ib-33, 8,9-dimethoxy-2-{5-[(3R)-piperidin-3-yloxy]pyridin-3-yl}benzo[c]-2,7-naphthyridin-4-amine], for which the half-maximal inhibitory concentration (IC50) was found to be 138 nM in assay [1], 8 nM in assay [2] and 368 nM in assay [3] (100 μM ATP).

On to `COCCN(C[C@H](N)COc1cncc(-c2cc3c(cnc4cc(OC)c(OC)cc43)c(N)n2)c1)c1ccccc1` [Ib-34, (2S)-3-{[5-(4-amino-8,9-dimethoxybenzo[c]-2,7-naphthyridin-2-yl)pyridin-3-yl]oxy}-N1-(2-methoxyethyl)-N1-phenylpropane-1,2-diamine], for which the IC50 was 61 to 130 nM in assay [1], 6 nM in assay [2], under 32 nM in assay [3] (20 μM ATP) and 116 nM in assay [3] (100 μM ATP).

For `COc1cc2ncc3c(N)nc(-c4cncc(OC[C@@H]5CN(c6cccc(F)c6)C(=O)N5)c4)cc3c2cc1OC` [Ib-35, (4S)-4-({[5-(4-amino-8,9-dimethoxybenzo[c]-2,7-naphthyridin-2-yl)pyridin-3-yl]oxy}methyl)-1-(3-fluorophenyl)imidazolidin-2-one], the IC50 in assay [1] is at least 1740 nM; in assay [2], 206 nM; in assay [3] (20 μM ATP), over 4000 nM; in assay [3] (100 μM ATP) it was over 2000 nM.

On to `COc1cc2ncc3c(N)nc(-c4cncc(OC[C@@H](N)CNc5cccc(F)c5)c4)cc3c2cc1OC` [Ib-36, (2S)-3-{[5-(4-amino-8,9-dimethoxybenzo[c]-2,7-naphthyridin-2-yl)pyridin-3-yl]oxy}-N1-(3-fluorophenyl)propane-1,2-diamine], for which the 50% inhibitory concentration (IC50) in assay [1] is 30 to 133 nM; in assay [2], 4 nM; in assay [3] (20 μM ATP), under 32 nM; in assay [3] (100 μM ATP), 223 nM.

`COc1cc2ncc3c(N)nc(-c4cncc(OC[C@@H](N)CN5CCNC(=O)C5)c4)cc3c2cc1OC` [Ib-37, 4-((2S)-2-amino-3-{[5-(4-amino-8,9-dimethoxybenzo[c]-2,7-naphthyridin-2-yl)pyridin-3-yl]oxy}propyl)piperazin-2-one]: the IC50 is 523 to 821 nM in assay [1], 18 nM in assay [2], 850 nM in assay [3] (20 μM ATP) and over 2000 nM in assay [3] (100 μM ATP).

In the case of `COCCN(C)C[C@H](N)COc1cncc(-c2cc3c(cnc4cc(OC)c(OC)cc43)c(N)n2)c1` [Ib-38, (2S)-3-{[5-(4-amino-8,9-dimethoxybenzo[c]-2,7-naphthyridin-2-yl)pyridin-3-yl]oxy}-N1-(2-methoxyethyl)-N1-methylpropane-1,2-diamine], the IC50 in assay [1] was 213 to 365 nM; in assay [2] it was 9 nM; in assay [3] (20 μM ATP), 210 nM; in assay [3] (100 μM ATP) it was 1040 nM.

As for `COc1cc2ncc3c(N)nc(-c4cncc(O[C@H]5CCCNC5)c4)cc3c2cc1OC` [Ib-39, 8,9-dimethoxy-2-{5-[(3S)-piperidin-3-yloxy]pyridin-3-yl}benzo[c]-2,7-naphthyridin-4-amine], the IC50 in assay [1] is at least 1700 nM; in assay [2], 84 nM; in assay [3] (20 μM ATP), over 4000 nM; in assay [3] (100 μM ATP), over 2000 nM.

Take `COc1cc2ncc3c(N)nc(-c4cncc(OC5CCNCC5)c4)cc3c2cc1OC` [Ib-40, 8,9-Dimethoxy-2-[5-(piperidin-4-yloxy)pyridin-3-yl]benzo[c]-2,7-naphthyridin-4-amine]: the IC50 in assay [1] is over 2000 nM; in assay [2], 117 nM; in assay [3] (20 μM ATP), over 4000 nM; in assay [3] (100 μM ATP) it was over 2000 nM.

Take `COc1cc2ncc3c(N)nc(-c4cncc(OC[C@@H](N)Cc5ccc(F)cc5)c4)cc3c2cc1OC` [Ib-41, 2-(5-{[(2S)-2-amino-3-(4-fluorophenyl)propyl]oxy}pyridin-3-yl)-8,9-dimethoxybenzo[c]-2,7-naphthyridin-4-amine]: the IC50 in assay [1] is 21 to 102 nM; in assay [2], 3 nM; in assay [3] (20 μM ATP), under 32 nM; in assay [3] (100 μM ATP) it was 183 nM.

`COc1cc2ncc3c(N)nc(-c4cncc(OC[C@@H](N)Cc5ccc(Cl)c(Cl)c5)c4)cc3c2cc1OC` [Ib-44, 2-(5-{[(2S)-2-amino-3-(3,4-dichlorophenyl)propyl]oxy}pyridin-3-yl)-8,9-dimethoxybenzo[c]-2,7-naphthyridin-4-amine]: the figures for the IC50 in assay [1], in assay [2] and in assay [3] (20 μM ATP) were 19 nM, 6 nM and under 32 nM, respectively.

For the molecule `COc1cc2ncc3c(N)nc(-c4cncc(OC[C@@H](N)CN5CCOCC5)c4)cc3c2cc1OC` [Ib-45, 2-(5-{[(2S)-2-amino-3-morpholin-4-ylpropyl]oxy}pyridin-3-yl)-8,9-dimethoxybenzo[c]-2,7-naphthyridin-4-amine], the 50% inhibitory concentration (IC50) in assay [1] is 725 nM; in assay [2], 25 nM; in assay [3] (20 μM ATP), 650 nM; in assay [3] (100 μM ATP), over 2000 nM.

Turning to `COc1cc2ncc3c(N)nc(-c4cncc(OC[C@@H](N)CN5CCc6ccccc65)c4)cc3c2cc1OC` [Ib-46, 2-(5-{[(2S)-2-amino-3-(2,3-dihydro-1H-indol-1-yl)propyl]oxy}pyridin-3-yl)-8,9-dimethoxybenzo[c]-2,7-naphthyridin-4-amine], the half-inhibitory concentration (IC50) in assay [1] is 65 nM; in assay [2] it was 8 nM; in assay [3] (20 μM ATP) it was under 32 nM; in assay [3] (100 μM ATP), 179 nM.
